The values that follow come from US10105319B2 (Murray and Poole Enterprises Limited, priority 2013, dated 2018).

The test system of series [1] is patients with a first episode of acute pericarditis. To be noted: at 18 months; conventional treatment plus colchicine 0.5 to 1.0 mg/day for 3 months; p=0.004; cited from earlier work.
Series [2] has as its system patients with clinically stable coronary disease. In words: LoDoCo Trial: colchicine 0.5 mg/day added to standard secondary prevention. Format: in vivo, human. As for the experimental part: This study is described in PCT/AU2013/001261 and is hereby incorporated in its entirety by reference.
All outcomes were evaluated by an experienced adjudicator blinded to the treatment allocation.
Patients with a history of bypass surgery were only eligible if they had undergone bypass surgery more than 10 years before, or had angiographic evidence of graft failure or had undergone stenting since their bypass surgery. All patients signed informed consent before randomization.
The randomization sequence was computer generated, kept concealed from the investigators at all times and was managed by a research assistant who had no involvement in the evaluation or management of study patients. […] Patients who were intolerant to therapy remained in the study, and were followed in the usual manner and included in the primary intention to treat analysis.
The drug was dispensed by their usual chemist, and if requested, patients were reimbursed for the cost of these scripts. All other treatments were continued as usual.
Patient compliance with treatment and outcome data were collected at routine follow up visits and at the time of any unplanned hospital admission. An acute coronary syndrome (ACS) was defined as either (a) Acute Myocardial Infarction (AMI), as evidenced by acute ischemic chest pain associated with a rise in serum troponin above the upper limit of normal or (b) Unstable Angina (UA), as evidenced by a recent acceleration of the patient's angina unassociated with a rise in serum troponin but associated with angiographic evidence of a change in the patient's coronary anatomy. (Unstable Angina Braunwald classification types IB and IIB). The ACS was characterized as being stent-related if there was evidence of significant in-stent stenosis or acute stent thrombosis. Out of Hospital Cardiac Arrest was defined as either a sudden death as evidenced on the patient's death certificate, or a non-fatal out of hospital cardiac arrest, defined as a recovery from sudden collapse associated with documented asystole, ventricular tachycardia or ventricular fibrillation. Noncardioembolic ischemic stroke was defined as CT or MRI proven ischemic stroke adjudged by the treating neurologist as not being due to atrial fibrillation or intracranial hemorrhage.
The primary efficacy outcome was the composite, ACS, fatal or non-fatal out of hospital cardiac arrest or non-cardio-embolic ischemic stroke. Secondary outcomes were (a) individual components of the primary outcome, and (b) the components of ACS unrelated to stent disease.
The pre-specified study duration was a minimum follow up of two years in all patients. Accordingly the study was closed on May 31, 2012. During May, all living patients were contacted by phone to collect compliance and outcome data from the last date of follow-up.
Summary statistics, including mean and standard deviation were calculated for all baseline characteristics by treatment arm. All time to event outcomes were calculated in days by subtracting the date of randomization from either: (1) the date of event or death; or (2) the trial termination date for those patients not experiencing the defined event. As pre-specified, the primary efficacy analysis was based on the intention-to-treat principle. The intention-to-treat analysis included all randomized subjects and all events during the time from randomization to the trial termination. Trial termination date was fixed as May 31, 2012. A secondary pre-specified on-treatment analysis was also performed, based on patients who were both tolerant and compliant to therapy beyond the first month of randomization.
The time-to-first-event for all outcomes is presented using a Kaplan-Meier plot. […] The secondary outcomes were analysed similarly.

Series [3] has the same test system. To be noted: 0.5 mg/day in addition to statins; Nidorf et al., JACC 2013; cited from earlier work.
Series [4] relates to patients with a first episode of recurrent pericarditis. The note with it: at 18 months; conventional treatment plus colchicine 0.5-1.0 mg/d for 6 months; cited from earlier work.

As to `COc1cc2c(c(OC)c1OC)-c1ccc(OC)c(=O)cc1[C@@H](NC(C)=O)CC2` [colchicine, N[5,6,7,9-tetrahydro-1,2,3,10-tetratmethoxy 9-oxobenzo[a]heptalen-7-yl],(S)-acetamide], the recurrence rate in series [1] is reported as 10.7%. Moreover, the “patients with AMI (ACS unrelated to stent disease)” value in series [2] (0.5 mg/day, 4/282) was 1.4%. For the same compound, in series [2] (0.5 mg/day, 5/282), the “patients with UA (ACS unrelated to stent disease)” value came to 1.8%. The “patients with an ACS unrelated to stent disease” value in series [2] (0.5 mg/day, 9/282) is 3.2%. Moreover, in series [2] (0.5 mg/day, 13/282), the “patients presenting with an ACS” value came out at 4.6%. Moreover, the “patients with primary outcome (ACS, out of hospital cardiac arrest or non-cardio-embolic ischemic stroke)” value in series [2] (0.5 mg/day, intention to treat, 15/282, median follow up 36 months) is reported as 5.3%. Further, the “patients reporting early intolerance due to gastrointestinal side effects” value in series [2] (32 of 282 randomized to treatment) was found to be 11%. In addition, in series [2] (colchicine group, all of non-cardiac causes, 10 in control group), the patients who died is 4 patients. The “out of hospital cardiac arrest and non-cardio-embolic ischemic stroke” value in series [2] (treatment group vs control) was “infrequent but were also reduced”. The “prevention of cardiovascular events” value in series [3] is recorded as “appeared effective”. The “recurrence rate (actuarial rate)” value in series [4] is 24.0%.
